The numbers were not newly measured in patent US20100317664A1, “METHODS OF AFFECTING GASTROINTESTINAL TRANSIT AND GASTRIC EMPTYING, AND COMPOUNDS USEFUL THEREIN” (priority 2007, published 2010), which cites them from elsewhere.

One data set deals with rats. The conditions noted are these: parenteral injection to rats.

On to `N[C@@H](Cc1ccc(Cl)cc1)C(=O)O` (racemic) [p-chlorophenylalanine], for which, in the data set with humans (in vivo), the adverse psychological effects result is “adverse psychological effects, such as dizziness, nausea and uneasiness”; the “entry into the central nervous system” value is “readily gets into the central nervous system”. For the same molecule, the constipation result with humans (oral administration, high doses (3000 mg/day), humans) was “causes constipation”. Also, the gastrointestinal motility entry in the data set with rats was “decreased their gastrointestinal motility”.
